Positions of bridges follow the written chain, without caps; N, C: chain ends. Non-standard residues stand in square brackets, D forms with d. Residues, ends and D or L forms follow the SMILES beside them. Primed or numbered codes have the meaning given here. No end group written: not given here. FITC′ = fluorescein isothiocyanate label; Nle = CCCC[C@H](N)C(=O)O
Columns and labels:
PC3 cells [1] = experiment: Flow cytometry binding to APN-expressing PC3 cells; format: cell-based; conditions: 500 nmol/L, 60 minutes, 4 °C
Experimental: (§1) Next, the specificity of the lead peptide inhibitor cyc-LHSPW was tested against a panel of cancer-associated proteases with wide-ranging substrate specificities (Fig. 5A). APN was the only protease inhibited by cyc-LHSPW with chymotrypsin, trypsin, PSA, KLK7, aminopeptidase A, and the exopeptidase FAP all having Ki values above 100 μM. Having assessed selectivity for purified APN, we next evaluated the ability of cyc-LHSPW to preferentially bind to cells that express surface APN using flow cytometry (Fig. 5B). […] The expression of cell surface-associated APN was examined in the androgen receptor negative neuroendocrine prostate cancer cell lines PC3 and DU145 using a commercially available antibody. […] The peptide was next tested on frozen PC3 and DU145 tumor xenografts sections.
(§2) Figure 5 Determining the specificity of cyc-LHSPW for APN. (A) The cyc-LHSPW peptide was specific inhibitor of APN when compared to a panel of proteases. (B) Fluorescence microscopy of frozen PC3 (left) and DU145 (right) xenograft sections with cyc-LHSPW-(Gly)4-FITC. Sections were incubated with 250 nM of cyc-LHSPW-(Gly)4-FITC overnight and then visualized. The merged fluoresence channels are cyc-LHSPW-(Gly)4-FITC (green) and nuclei (DAPI, blue). (C) Analysis of APN inhibitor binding to PC3 (left) and DU145 cells (right) by flow cytometry. […]

DU145 cells [2] = experiment: Flow cytometry binding to APN-null DU145 cells; format: cell-based; conditions: 500 nmol/L, 60 minutes, 4 °C
Experimental: as §1, §2

[3] = tested on: frozen PC3 and DU145 tumor xenografts sections; experiment: Fluorescence microscopy of frozen tumor xenograft sections; conditions: 250 nM overnight, PC3 vs DU145 sections
Experimental: as §1, §2

PC3 cells [4] = experiment: Clonogenic survival assay, PC3; format: cell-based
Experimental: (§3) The potential therapeutic efficacy of cyc-LHSPW was next tested in vitro using the PC3 and DU145 cell lines. […] Prior to in vivo therapeutic efficacy studies, a toxicity study was performed with the i.v. administration of cyc-LHSPW. […] Mice bearing established PC3 and DU145 xenografts were treated systemically via tail vein injection with 40 mg/kg of the tumor homing APN peptide cyc-NGR or the cyc-LHSPW peptide t.i.w. x4 (Fig. 6B). […] This therapeutic effect persisted to the end of the study with the cyc-LHSPW-treated mice having a tumor volume of 309.3 ± 92.7 mm^3 at day 35. […] PC3 tumors were removed and stained for the cellular proliferation marker Ki67.
(§4) Figure 6 The therapeutic evaluation of cyc-LHSPW in vivo and in vitro. (A) The effect of the three peptides cyc-LHSPW, LHSPW and cyc-nHSPW on the clonogenic survival of APN-expressing PC3 cells and APN-null DU145 cells. (B) Tumor growth of PC3 and DU145 xenograft mice treated with 40 mg/kg of cyc-LHSPW, cyc-NGR or saline control three times a week for four weeks. […] Statistical significance of cyc-LHSPW compared with control is denoted by: *P < 0.05; and **P < 0.01, as determined by the Student t test. […]
(§5) The clonogenic survival assays were conducted as previously described. […] Tumor measurements were made twice weekly with calipers and the tumor volume (in mm^3) was calculated by the formula 0.5236 × length (L) × width (W) × height (H). […]

hAPN (aminopeptidase N) = biological target: T1, hAPN (aminopeptidase N) (Homo sapiens, UniProt P15144); experiment: Inhibition of cleavage of fluorogenic alanine substrate (H-Ala-AMC) by APN; format: biochemical
T1 construct: human APN ecdomain (residues 66–967) were expressed and purified as previously described; honeybee-melittin signal peptide (N); His6 (C); made in house; host or cells: insect cells
Experimental: Five-residue long peptides containing P1–P4′ residues from primary cleavages in the library were synthesized and tested for their ability to prevent the cleavage of a fluorogenic alanine substrate by hAPN.
The peptides used in this study were custom synthesized by AAPPTEC of Louisville, KY using traditional Fmoc solid-phase peptide synthesis. All of the peptides were purified and characterized by AAPPTEC. […] Inhibition assays were performed in triplicate in a 100 mM Tris pH 7.2, Brij 35 0.0002% w/v assay buffer at 37 °C with 0.1 μM APN and 100 μM H-Ala-AMC (fluorophore). Values were recorded by Infinite pro plate reader every 2 minutes for 30 minutes with laser parameters set for excitation at 355 nm and emission at 460 nm.

DU145 cells [5] = experiment: Clonogenic survival assay, DU145; format: cell-based
Experimental: as §3, §4, §5

T1 sequence (P15144 66-967): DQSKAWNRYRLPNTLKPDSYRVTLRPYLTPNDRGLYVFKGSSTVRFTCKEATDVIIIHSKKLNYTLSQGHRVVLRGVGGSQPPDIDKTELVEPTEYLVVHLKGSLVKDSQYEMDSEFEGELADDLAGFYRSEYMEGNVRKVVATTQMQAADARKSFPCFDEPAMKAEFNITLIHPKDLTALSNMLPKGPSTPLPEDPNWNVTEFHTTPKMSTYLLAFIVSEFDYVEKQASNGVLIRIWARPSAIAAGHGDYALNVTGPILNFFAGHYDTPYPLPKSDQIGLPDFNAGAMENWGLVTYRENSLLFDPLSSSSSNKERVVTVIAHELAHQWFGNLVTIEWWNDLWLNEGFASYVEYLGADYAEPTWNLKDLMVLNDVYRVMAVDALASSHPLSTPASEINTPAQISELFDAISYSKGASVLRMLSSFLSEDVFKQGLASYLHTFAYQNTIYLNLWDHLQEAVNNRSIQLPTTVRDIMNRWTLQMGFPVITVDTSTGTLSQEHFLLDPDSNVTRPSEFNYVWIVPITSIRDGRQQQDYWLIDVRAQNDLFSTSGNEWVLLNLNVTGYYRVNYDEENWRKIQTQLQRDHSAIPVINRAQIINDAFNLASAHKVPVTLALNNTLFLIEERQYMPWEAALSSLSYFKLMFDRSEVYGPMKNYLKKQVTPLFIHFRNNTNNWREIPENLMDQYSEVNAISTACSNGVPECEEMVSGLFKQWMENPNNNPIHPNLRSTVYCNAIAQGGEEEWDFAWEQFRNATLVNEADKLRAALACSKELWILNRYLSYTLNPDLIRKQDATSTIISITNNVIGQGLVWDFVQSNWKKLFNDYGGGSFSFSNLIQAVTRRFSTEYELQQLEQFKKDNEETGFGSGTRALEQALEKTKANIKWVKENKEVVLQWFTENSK

Compound | binding to cells by flow cytometry (PC3 cells [1]) | binding to cells by flow cytometry (PC3 cells [1]; listed as FITC labeled cyc-LHSPW) | binding to cells by flow cytometry (DU145 cells [2]) | labeling of xenograft sections by fluorescence microscopy [3] | clonogenic survival (PC3 cells [4]) | inhibition of APN (in words) (hAPN (aminopeptidase N)) | clonogenic survival (DU145 cells [5])
cyc-LHSPW-(Gly)4-FITC: fluorophore-containing version of cyc-LHSPW with a (Gly)4-FITC group coupled to the C-terminal cysteine (CLHSPWCGGGG-{FITC′}; disulfide 1-7) | selectively labeled the APN-expressing PC3 cells over the APN-null DU145 cells | preferentially bound to PC3 cells | no noticeable labelling of DU145 cells | Preferential labeling of the PC3 xenograft section was evident |  |  | 
CCCC[C@@H]1NC(=O)[C@@H](N)CSSC[C@@H](C(=O)O)NC(=O)[C@H](Cc2c[nH]c3ccccc23)NC(=O)[C@@H]2CCCN2C(=O)[C@H](CO)NC(=O)[C@H](Cc2c[nH]cn2)NC1=O [cyc-nHSPW, Cys-nHSPW-Cys] (H-C[Nle]HSPWC-OH; disulfide 1-7; N-terminus and C-terminus assumed) |  |  |  |  | No significant biological effect | eliminated any measureable inhibition of APN | No significant biological effect

Source: publication PMC5431086, “The Rational Design of Therapeutic Peptides for Aminopeptidase N using a Substrate-Based Approach” (Scientific Reports, 2017)
